Experiment: Amount of triclosan released from the bag into the dilution extender (LC-MS-MS)
Assay type: physicochemical
Conditions: bag of Example 3; for Amount of triclosan released into the dose / Proportion of triclosan released into the dose: five days, 17° C.; for Amount of triclosan released into the dose: full dose 70 ml; for Proportion of triclosan released into the dose: relative to approximately 532 μg in parts facing the pouch
Source text: A description will now be given of the trials with the bag of Example 3 to determine the amount of triclosan released into the dose of diluted semen such as 27 contained in the pouch such as 14 of that bag.
To simplify the trials, it was not a dose of diluted semen which was preserved in the bag but only dilution extender.
In this case, the dilution extender 53 (hereinafter “extender A”) and a conventional dilution extender containing an antibiotic (hereinafter “extender B”) were used.
One bag of Example 3 is filled with a dose of extender A and one bag of Example 3 with a dose of extender B.
Next the bags are left to rest for five days in the usual preservation conditions, that is to say 17° C. in horizontal position.
Next, the extender contained in each bag is analyzed, in order to determine the concentration of triclosan.
This analysis is made by liquid chromatography tandem mass spectrometry (LC-MS-MS method).
Based on the concentrations obtained, the amount of triclosan released is determined in a full dose provided to be contained in the bag, that is to say 70 ml.
It will be noted that the weight of triclosan taken into account in the sheets such as 11 and 12 of the bag of Example 3 for calculating the proportion released is not the weight of triclosan in the entirety of these sheets, but only in the parts facing the pouch such as 14. Here, these parts weigh approximately 1.835 g (determined after cutting out and weighing). As there are 29 mg of triclosan for 100 g of sheet. The amount of triclosan contained in these parts is approximately 532 μg.

[1] = Extender A (without antibiotic)
[2] = Extender B (containing an antibiotic)

**Q.** With Oc1cc(Cl)ccc1Oc1ccc(Cl)cc1Cl [triclosan] as the molecule, how does the “Amount of triclosan released into the dose” value [1] read?
**A.** 2.7 µg

**Q.** What about the “Proportion of triclosan released into the dose” value [1] of the same molecule?
**A.** 0.5%

**Q.** And the “Amount of triclosan released into the dose” value [2]?
**A.** 1.9 µg

**Q.** What about the “Proportion of triclosan released into the dose” value [2] of the same molecule?
**A.** 0.35%

**Q.** And the “amounts released into the dilution extenders” value (comment on the release results)?
**A.** around 1%
